How the values were obtained:
[1] = system: cerulein-induced acute pancreatitis; experiment: cerulein-induced acute pancreatitis (AP) in WT and Hpa-Tg mice; assay type: in vivo; conditions: for pancreato-protective effects against AP: early (pre) or post treatment, 10 mg/mouse, FIGS. 3-4; for tolerability: 16 and 32 mg/kg doses; for severity of AP: 16 and 32 mg/kg doses i.p., pre-treatment, FIGS. 5 and 6
Experimental: (§1) Studies utilized wild type (WT) BALB/c mice and heparanase transgenic (Hpa-Tg) mice in which the human heparanase gene is driven by a constitutive β-actin promoter (19) in a BALB/c genetic background. Animals were fed standard mouse chow and tap water ad libitum. All experiments were approved and performed according to the Technion's guidelines of the Committee for the Supervision of Animal Experiments.
Mice were injected with either cerulein (intraperitoneally, […], 5 times at 1 hour apart) (Sigma-Aldrich), or saline (0.9% NaCl) (control group). Additional groups of mice were pretreated with either Aspirin (250 mg/kg, SC) and Trehalose (2000 mg/kg, ip) alone or combined. Additional groups of animals were pre- and post-treated with Aspirlose (10 mg/mouse). […] Finally, the inventors tested the effectivity of “Indose” and “Diclose” at various concentrations against AP. Mice were sacrificed 24 hours later, and serum samples and pancreatic tissue were collected for measurements of blood amylase and lipase levels, pancreatic index (pancreas/body weight ratio), and for histological analysis. Portion of pancreas tissues were also homogenized, and lysate samples were subjected to immunoblotting.
Pancreatic tissue samples were fixed in 10% neutral-buffered formalin progressively dehydrated in graduated alcohol and embedded in paraffin. Five-micron (5 μm) sections were stained with hematoxylin and eosin (H&E).

[2] = system: cerulein-induced acute pancreatitis; conditions: previous studies; cited from earlier work
[3] = acute toxicity, intraperitoneal injection in wild type mice; conditions: mouse, in vivo, ip; intraperitoneal injection, sterile water as carrier, groups of 5 wild type mice
Experimental: (§2) Further, the inventors examined the acute toxicity of the compounds Indose and Diclose. A series of dosages: 8 mg/kg, 32 mg/kg, 64 mg/kg, 128 mg/kg, 256 mg/kg, 512 mg/kg, 768 mg/kg, 1024 mg/kg, 1,100 mg/kg, and 1,200 mg/kg were injected by intraperitoneal injection in the presence of sterile water as carrier. Each dosage was injected to a group of 5 wild type mice.

wild type mice = experiment: as above; conditions: mouse, in vivo, ip; for mortality: 500 mg/kg
Experimental: as §2

[4] = system: ischemia-reperfusion acute kidney injury; experiment: ischemia-reperfusion (I/R) acute kidney injury (AKI) model in WT FVB/N mice; assay type: in vivo; conditions: administered short time after induction of AKI, FIGS. 13A-13C
Experimental: (§3) Renal ischemia was induced by clamping the renal artery of both kidneys for 30 min followed by reperfusion (I/R). The inventors tested the effectivity of “Indose” and “Diclose” before induction of ischemia (e.g., “prophylactic effect” or “pre-treatment”) or after (e.g., “treating effect” or “post-treatment”), using the dosing as disclosed hereinabove. Mice were sacrificed 48 hours later, and serum samples and kidney tissue were collected for measurements of blood creatinine and urea nitrogen levels, kidney index (kidney/body weight ratio), and for histological analysis. Portion of kidney tissues were also homogenized, and lysate samples were subjected to mRNA extraction, and expression analysis of neutrophil gelatinase-associated lipocalin (NGAL) and kidney injury molecule-1 (KIM-1).
The inventors used the ischemia-reperfusion (I/R)-AKI model in mice. The pathogenesis of this disease was evaluated based on kidney edema, blood creatinine (Scr), and blood urea nitrogen (BUN) levels were determined 48 hours following AKI induction. Further, the inventors performed histopathological analysis, as well as expression analysis of the renal injury biomarkers neutrophil gelatinase-associated lipocalin (NGAL), kidney injury molecule-1 (KIM-1). […]

[5] = system: ischemia-reperfusion acute kidney injury; experiment: ischemia-reperfusion (I/R) acute kidney injury (AKI) model in Hpa-Tg mice; assay type: in vivo; conditions: pretreatment; for expression level of NGAL in kidney / expression level of KIM-1 in kidney: female Hpa-Tg mice; for expression level of NGAL in kidney / NGAL expression in kidney: FIG. 11A; for expression level of KIM-1 in kidney: FIG. 11B; for NGAL expression in kidney: male Hpa-Tg mice; for kidney weight normalized to body weight (KW/BW): Hpa-Tg mice, 48 h after AKI, FIGS. 7A and 8A; for gross morphology and histopathology of kidneys: Indose 16 mg/kg i.p., Diclose 32 mg/kg i.p., male and female Hpa-Tg mice, FIGS. 9 and 10; for increase of blood urea nitrogen (BUN) following AKI / increase of serum creatinine (SCr) following AKI: male Hpa-Tg mice (trend persisted in females), 48 h from AKI induction
Experimental: as §1, §3
The inventors used the ischemia-reperfusion (I/R)-AKI model in mice. The pathogenesis of this disease was evaluated based on kidney edema, blood creatinine (Scr), and blood urea nitrogen (BUN) levels were determined 48 hours following AKI induction. Further, the inventors performed histopathological analysis, as well as expression analysis of the renal injury biomarkers neutrophil gelatinase-associated lipocalin (NGAL), kidney injury molecule-1 (KIM-1).
AKI was induced in the absence or presence of pretreatment with Indose (16 mg/kg, i.p.) or Diclose (32 mg/kg, i.p.), respectively in Hpa-Tg mice (males and females). Untreated Hpa-Tg male and female mice that underwent sham operation served as control group. […] In male mice pretreated with Diclose and Indose, a reduction in NGAL expression was also observed (FIG. 11A). This trend persisted in female mice although the elevation in SCr and BUN following AKI was to a lesser extent.

[6] = WT and Hpa-Tg mice, cerulein treatment, FIG. 1

| SMILES | tissue edema (histopathology of pancreas) ([1]; WT and Hpa-Tg mice exposed to cerulein, FIG. 2) | elevation in biochemical parameters (serum amylase and lipase) [1, 6] | pancreatic edema (pancreatic index, % Pancreatic weight/Body weight) [1, 6] | pancreas edema and inflammation, induction of cytokines and signaling molecules following cerulein administration [2] | pancreato-protective effects against AP [1] | LD50 [3] | toxicity (overall) (wild type mice) | mortality (wild type mice) | effects on AKI, post-treatment [4] | expression level of NGAL in kidney [5] | expression level of KIM-1 in kidney [5] | NGAL expression in kidney [5] | kidney weight normalized to body weight (KW/BW) [5] | gross morphology and histopathology of kidneys [5] | increase of blood urea nitrogen (BUN) following AKI [5] | increase of serum creatinine (SCr) following AKI [5] | tolerability ([1]; WT and Hpa-Tg mice) | severity of AP ([1]; WT and Hpa-Tg mice) |
| --- | --- | --- | --- | --- | --- | --- | --- | --- | --- | --- | --- | --- | --- | --- | --- | --- | --- | --- |
| CC(C)CCC[C@@H](C)[C@H]1CC[C@H]2[C@@H]3CC[C@H]4C[C@@H](O[C@@H]5O[C@H](COS(=O)(=O)O)[C@@H](O[C@H]6O[C@H](COS(=O)(=O)O)[C@@H](O[C@H]7O[C@H](COS(=O)(=O)O)[C@@H](O[C@H]8O[C@H](COS(=O)(=O)O)[C@@H](OS(=O)(=O)O)[C@H](OS(=O)(=O)O)[C@H]8OS(=O)(=O)O)[C@H](OS(=O)(=O)O)[C@H]7OS(=O)(=O)O)[C@H](OS(=O)(=O)O)[C@H]6OS(=O)(=O)O)[C@H](OS(=O)(=O)O)[C@H]5OS(=O)(=O)O)CC[C@]4(C)[C@H]3CC[C@]12C [PG545, reference compound] | markedly restored | markedly reduced | markedly reduced | attenuated markedly |  |  |  |  |  |  |  |  |  |  |  |  |  |  |
| CC(=O)Oc1ccccc1C(=O)OC[C@H]1O[C@H](O[C@H]2OC(CO)[C@@H](O)[C@H](O)[C@H]2O)[C@H](O)[C@@H](O)[C@@H]1O (some centres unmarked) [Asprilose mono] |  |  |  |  | pancreato-protective effects |  |  |  |  |  |  |  |  |  |  |  |  |  |
| CC(=O)Oc1ccccc1C(=O)OCC1O[C@H](O[C@H]2O[C@H](COC(=O)c3ccccc3OC(C)=O)[C@@H](O)[C@H](O)[C@H]2O)[C@H](O)[C@@H](O)[C@@H]1O (some centres unmarked) [Asprilose dimer] |  |  |  |  | pancreato-protective effects |  |  |  |  |  |  |  |  |  |  |  |  |  |
| Cc1c(CC(=O)OC[C@H]2O[C@H](O[C@H]3O[C@H](CO)[C@@H](O)[C@H](O)[C@H]3O)[C@H](O)[C@@H](O)[C@@H]2O)c2ccccc2n1C(=O)c1ccc(Cl)cc1 [Indose, Trehalose-Indomethacin] |  |  |  |  |  | 900 mg/kg | low toxicity | No mortality was observed | curative effects | effectively reduced | effectively reduced | reduction | significantly reduced | resembled kidneys of the ‘Sham’ control group | remarkably attenuated | remarkably attenuated | well tolerated | reduced the severity of AP |
| O=C(Cc1ccccc1Nc1c(Cl)cccc1Cl)OC[C@H]1O[C@H](O[C@H]2O[C@H](CO)[C@@H](O)[C@H](O)[C@H]2O)[C@H](O)[C@@H](O)[C@@H]1O [Diclose, Trehalose-Dichlorofenac] |  |  |  |  |  | 780 mg/kg | low toxicity | No mortality was observed | curative effects of AKI, with the effects of Diclose being more pronounced | effectively reduced | effectively reduced | reduction | significantly reduced | resembled kidneys of the ‘Sham’ control group | remarkably attenuated | remarkably attenuated | well tolerated | reduced the severity of AP |
